In patent EP0614464B1, “PEPTIDES AND ANTIBODIES FOR TREATMENT OF RHEUMATOID ARTHRITIS” (PEPTIDE THERAPEUTICS LIMITED, priority 1991, dated 1993):
Ends that are not written are not given here. Peptide text beside a SMILES is read from it.

Legend:
[1] = test system: alternative complement (C3) pathway; assay: Inhibition of C3-activation: preventing IgA-α1AT complex from activating the alternative complement pathway, rabbit erythrocyte haemolysis read-out; type: biochemical, human
Procedure: Various peptides were tested for their ability to prevent the IgA-α1AT complex from activating the alternative complement (C3) pathway.
The method of measuring the capacity to activate the alternative complement pathway by the non-immune IgA-α1AT complex and the subsequent inhibition of this activation by anti-rheumatic peptides is described below.
This method was based on the method described by Riches and Stanworth, Immunology Letters, 1980, 1, 363,366, with modification to miniaturise it thus allowing the assay to be carried out on microtitre plates.
The initial observation by Platts-Mills and Ishizaka (J Immunol. (1974) 113, 348,358) that low dilutions of fresh normal human serum, from which calcium had been removed by chelation with 10mM EGTA to block the classical complement pathway, caused greater than 90% haemolysis of unsensitised rabbit erythrocytes when incubated at 37°C was employed in this assay.
The non-immune complex IgA-α1AT had been shown in the past to be the only known soluble complex to activate the alternative pathway complement and […] of the rabbit erythrocytes. This inhibition required biologically active complex.
The buffers solutions required in this assay were (a) Total lysis buffer (1% Triton100 in ultra pure water), (b) Alternative pathway complement fixation diluent (APCFD) which was:- • 83 volumes CFD, DH 7.2 (1 oxoid tablet: 100ml UPW) • 10 volumes 0.1M EGTA pH 7.2 • 7 volumes MgCl2 pH 7.2
Blood was obtained by venipuncture from a healthy human individual. The blood was allowed to clot for 1 hour at room temperature and then stored overnight at 4°C. The serum was removed and stored at -70°C in lml aliquots. For use, the serum was defrosted and 100µl of 0.1m EGTA pH 7.2 and 70µl O.lm MgCl2 pH 7.2 was added.
Rabbit red blood cells (RBC) were obtained by venipuncture of a healthy rabbit and collected into 0.1M citrate buffer pH 6.2. The RBC were washed 3 times in citrate buffer and the cells were stored in this buffer which was changed every week. It was possible to store cells in this way for 3 weeks. Peptides
The peptides were synthesised as described in Example 1 and made up in UPW to lmM. They were kept frozen at -70°C prior to use.
This was prepared as previously described in Example 2. It was kept frozen in small aliquots prior to use.
Using a round bottomed welled flexible microtitre plate 100µl neat serum (with added EGTA and MgCl2) was added to the first wells in duplicate. This was double diluted out, with APCFD to give a volume of 50µl well. 8 test wells (+ duplicates) were sufficient. 8 wells were prepared as a positive control - (100µl 1% Triton/UPW). 8 wells were prepared as a negative control - (100µl APCFD (Blank)).
50µl of APCFD was added to the test wells and 50µl of 1% rabbit RBC was added to all wells. The plate was then incubated at 37°C for 30 minutes and then centrifuged for 10 minutes at 2000 rpm.
75µl of the supernatant was carefully removed and plated onto a flat bottom welled microtitre plate. The plates were then read at 410nm interference, 690nm reference. The zero or blank value was calculated as the mean value of negative control wells and using the mean of the positive control wells, the percentage lysis for serum dilutions was calculated. In future assays the serum dilution in which lysis was approx. 80% of Rb RBC was used. This was usually in the range 1:4 - 1:6 dilution (ie. lml serum : 4ml APCFD - 6ml APCFD).
A 1:1 dilution of IgA-α1AT complex was made with twice concentrated APCFD. 100µl of this 1:1 dilution of complex was added to the first wells in duplicate. This was double diluted out with APCFD to give 50 µl per well. 50µl of the predetermined dilution of serum (see (i) above) was added to each well. Positive and negative control wells as described in (a) above and wells containing serum alone were used as controls. The plates were incubated at 37°C for 30 minutes and then centrifuged at 2000 rpm for 1 minute. […]

IgA-α1AT complex = assay: HPLC analysis of in vitro dissociation of purified IgA-α1AT complex; type: biochemical, human; details: for HPLC minimum: Table 5, minimum concentration giving complex : free IgA ratio at 20% (base-line 14%), >500µM = no complex dissociation at highest concentration tested; for HPLC %: Table 1
Procedure: The ability of the peptides of the invention to dissociate purified IgA-α1AT complex in vitro was tested as described below. The anti-rheumatic drug D-penicillamine and other synthetic peptides were used as controls. […] The sample was monitored at wavelength 206nm at a flow rate of 1ml/minute with phosphate buffer (0.1M) pH 7.1. […] They represent the ability of the peptides to dissociate the IgA-α1AT complex in vitro. In these experiments, the base-lines level comprises a complex : free IgA ratio of 14% . The minimum concentration of peptide taken to produce a positive dissociation effect is that which results in a complex: free IgA ratio at 20%. In the results tables, all the peptide values are expressed in µMoles.

[2] = test system: mouse macrophage cell line (PU 518); assay: Macrophage inhibition assay: IgA-α1AT complex-stimulated release of lysosomal enzymes; type: cell-based; details: concentration needed to prevent 50% release of β-glucoromidase
Procedure: A mouse macrophage cell line (PU 518) was stimulated to release lysosomal enzymes by the addition of purified human IgA-α1AT complex. The degree to which this release was then inhibited by the peptides or other drugs was investigated, with the degree of inhibition being indicative of activity; the concentration of peptide or other test drugs giving 50% inhibition being recorded. Briefly the method was as follows:
25µl of peptide or drug was double diluted in […] + 10% foetal calf serum (FCS) in a sterile tissue culture 96 well plate. 25µl of IgA-α1AT complex in RPMI 1640 +10% FCS at about 0.2mg/ml was then added to all wells. 50µl of cells at a concentration of 2 x 10^6 cells/ml in RPMI 1640 + 10% FCS was then added to each well.
Control wells of cells alone and cells + IgA-α1AT complex were also prepared. The plate was then gently mixed and incubated overnight (16hr) at 37°C in a 4% CO2 atmosphere. Plates were then centrifuged at 1200 rpm for 10 minutes in a bench top centrifuge.
40µl of supernatant was then taken from each well and added to a 96 well polystyrene assay plate, to which was added 40µl of 160mM acetate buffer (pH 4.3) containing 2mM phenolphthalein-β-D-glucuronic acid. To obtain a standard curve, dilutions of phenolphthalein in acetate buffer from 100-5µg/ml were also added to separate wells in the assay plate.
The plates were then incubated at 37°C for 4 hours before 150µl of 0.2M glycine/NaOH buffer (pH 10.6) containing 0.2M NaCl was added to stop the reaction.
Plates were then shaken for 3 minutes before the optical density at 570nm was read on a plate reader, and the amount of β-D-glucuronic acid released from the cells calculated. The concentration of peptide or drug giving 50% inhibition of release was then noted.
The results for the macrophage inhibition assays are expressed as the concentration needed to prevent 50% release of β-glucoromidase.

[3] = Table 3, minimum concentration of peptide needed to prevent C3 activation
[4] = Table 3, minimum peptide concentration giving complex : free IgA ratio at 20% (base-line 14%), 90 minutes at 37°C
[5] = Table 5, minimum concentration needed to prevent C3 activation
[6] = Table 1, minimum concentration of peptide needed to prevent C3 activation
[7] = minimum peptide concentration giving complex : free IgA ratio at 20% (base-line 14%), 90 minutes at 37°C
[8] = Table 4, minimum concentration of peptide needed to prevent C3 activation
[9] = Table 4, minimum peptide concentration giving complex : free IgA ratio at 20% (base-line 14%), 90 minutes at 37°C

QHCKK-NH2 [Peptide 133, QHCKKnh2]
C' [1, 3]: 31 µM | HPLC (IgA-α1AT complex; [4]): 10 µM

DGHCKK-NH2 [Peptide 119, DGHCKKnh2]
HPLC (IgA-α1AT complex; [4]): 10 µM

Substance P [Peptide 36, reference compound]
C' minimum [1, 5]: >500 µM | HPLC minimum (IgA-α1AT complex; 90 minutes at 37°C): >500 µM | IC50 ([2]; Table 5, head prints no unit, b70 says all values of the results tables are in µMoles): > 500 µM

HPCKK-NH2 [Peptide 201, HPCKKnh2]
C' [1, 6]: 3.9 µM | HPLC % (IgA-α1AT complex; [7]): 10 µM

HYCKK-NH2 [Peptide 199, HYCKKnh2]
C' [1, 6]: 3.9 µM | HPLC % (IgA-α1AT complex; [7]): 10 µM

IQHCKK-NH2 [Peptide 134, IQHCKKnh2]
C' [1, 3]: 62 µM | HPLC (IgA-α1AT complex; [4]): 10 µM

HCKKGGE-NH2 [Peptide 152, HCKKGGEnh2]
C' [1, 8]: 125 µM | HPLC (IgA-α1AT complex; [9]): 10 µM

NCCCC[C@H](NC(=O)[C@H](CCCCN)NC(=O)[C@H](CS)NC(=O)[C@@H](N)Cc1c[nH]cn1)C(N)=O [Peptide 132, HCKKnh2] (H-HCKK-NH2)
C' [1, 6]: 16 µM | HPLC % (IgA-α1AT complex; [7]): 10 µM | IC50 ([2]; Table 1, 16hr incubation): 60 µM

HCKKE-NH2 [Peptide 150, HCKKEnh2]
C' [1, 8]: 8 µM | HPLC (IgA-α1AT complex; [9]): 50 µM

IVLVDNKCKCAR [Peptide 89, reference compound]
C' minimum [1, 5]: 125 µM | HPLC minimum (IgA-α1AT complex; 90 minutes at 37°C): 50 µM

C[C@@H](N)C(=O)N[C@@H](Cc1c[nH]cn1)C(=O)N[C@@H](CS)C(=O)N[C@@H](CCCCN)C(=O)N[C@@H](CCCCN)C(=O)N[C@H](C)C(N)=O [Peptide 210, dAHCKKdAnh2, reference compound] (HELM PEPTIDE1{[dA].H.C.K.K.[dA].[am]}$$$$V2.0)
C' minimum [1, 5]: 3.9 µM | HPLC minimum (IgA-α1AT complex; 90 minutes at 37°C): 10 µM

HCKKGE-NH2 [Peptide 151, HCKKGEnh2]
C' [1, 8]: 16 µM | HPLC (IgA-α1AT complex; [9]): 50 µM

DHCKK-NH2 [Peptide 113, DHCKKnh2]
C' [1, 3]: 78 µM | HPLC (IgA-α1AT complex; [4]): 10 µM | IC50 ([2]; Table 3, 16hr incubation): 70 µM

EGHCKK-NH2 [Peptide 155, EGHCKKnh2]
C' [1, 3]: <2 µM | HPLC (IgA-α1AT complex; [4]): 5 µM | IC50 ([2]; Table 3, 16hr incubation): 60 µM

EHCKK-NH2 [Peptide 154, EHCKKnh2]
C' [1, 3]: <2 µM | HPLC (IgA-α1AT complex; [4]): 5 µM

HDCKK-NH2 [Peptide 198, HDCKKnh2]
C' [1, 6]: 3.9 µM | HPLC % (IgA-α1AT complex; [7]): 10 µM

HCKKD-NH2 [Peptide 120, HCKKDnh2]
C' [1, 8]: 62 µM | HPLC (IgA-α1AT complex; [9]): 50 µM | IC50 ([2]; Table 4, 16hr incubation): 25 µM

HCKKGD-NH2 [Peptide 121, HCKKGDnh2]
C' [1, 8]: 62 µM | HPLC (IgA-α1AT complex; [9]): 125 µM

HFCKK-NH2 [Peptide 208, HFCKKnh2]
C' [1, 6]: 3.9 µM | HPLC % (IgA-α1AT complex; [7]): 10 µM

HFCKK-NH2 [Peptide 209, HFCKKnh2]
C' [1, 6]: 3.9 µM

NCCCC[C@H](NC(=O)[C@H](CCCCN)NC(=O)[C@@H](N)CS)C(N)=O [Peptide 114, CKKnh2] (H-Cys-Lys-Lys-NH2)
C' minimum ([1]; Table 2, minimum concentration of peptide needed to prevent C3 activation): >1250 µM | HPLC% minimum (IgA-α1AT complex; Table 2, minimum peptide concentration giving complex : free IgA ratio at 20% (base-line 14%), 90 minutes at 37°C): 125 µM

HECKK-NH2 [Peptide 204, HECKKnh2]
C' [1, 6]: <1.95 µM | HPLC % (IgA-α1AT complex; [7]): 10 µM

NCCCC[C@H](NC(=O)[C@@H](N)CS)C(N)=O [Peptide 115, CKnh2, reference compound] (H-Cys-Lys-NH2)
HPLC minimum (IgA-α1AT complex; 90 minutes at 37°C): 500 µM | activity (IgA-α1AT complex; comment in words on Tables 3-5, assay not given, fits the HPLC values): substantially less active

C[C@@H](NC(=O)[C@H](CCCCN)NC(=O)[C@H](CCCCN)NC(=O)[C@H](CS)NC(=O)[C@@H](N)Cc1c[nH]cn1)C(N)=O [Peptide 206, HCKKdAnh2] (HELM PEPTIDE1{H.C.K.K.[dA].[am]}$$$$V2.0)
C' [1, 8]: 31.3 µM | HPLC (IgA-α1AT complex; [9]): 50 µM

DGGHCKK-NH2 [Peptide 118, DGGHCKKnh2]
HPLC (IgA-α1AT complex; [4]): 50 µM

C[C@@H](N)C(=O)N[C@@H](Cc1c[nH]cn1)C(=O)N[C@@H](CS)C(=O)N[C@@H](CCCCN)C(=O)N[C@@H](CCCCN)C(N)=O [Peptide 205, dAHCKKnh2] (HELM PEPTIDE1{[dA].H.C.K.K.[am]}$$$$V2.0)
C' [1, 3]: 1.95 µM | HPLC (IgA-α1AT complex; [4]): 10 µM

NIQHCKK-NH2 [Peptide 135, NIQHCKKnh2]
C' [1, 3]: 31 µM | HPLC (IgA-α1AT complex; [4]): 10 µM

HCKKGGD-NH2 [Peptide 122, HCKKGGDnh2]
C' [1, 8]: 31 µM | HPLC (IgA-α1AT complex; [9]): 50 µM
